Data from patent publication US4314061A, “Certain 3,6-bis-(heteroaminoalkoxy) acridines” (priority 1980, dated 1982).
Counter-ions that a name gives are not always drawn.

Tests used:
[1] = test system: Rauscher Virus-Induced Leukemia; assay: Inhibition of splenomegaly in mice with Rauscher virus-induced leukemia; type: in vivo, Balb/c mice; conditions: for reduction in splenomegaly: general statement, no dose, relative to placebo treated RLV-infected mice
[2] = test system: Rauscher Virus-Induced Leukemia; assay: Restoration of antibody formation in mice with Rauscher virus-induced leukemia; type: in vivo, Balb/c mice
[3] = test system: Columbia SK virus; assay: Antiviral effects against an interferon-sensitive virus, Columbia SK; type: in vivo, Taconic Farms male, white mice; conditions: 400 mg/kg oral, 18 hours before infection; 14 days post injection
Experimental: Taconic Farms male, white mice, weighing 18-24 g were treated by gavage, 18 hours before infection with a test compound suspended or dissolved in 1.0 ml of 0.2% aqueous agar solution. The mice were then infected by subcutaneous injection with one LD95 of Columbia SK virus in 0.2 ml of distilled water. Groups of infected, untreated mice were used as controls to show the lethality of the infection. The test duration was 14 days.

[4] = test system: Columbia SK virus; assay: Protection of mice against lethal Columbia SK virus infection by oral pre-treatment; type: in vivo, random-bred Swiss male mice; conditions: 200 mg/kg oral
Experimental: At 24, 48, 72 and 96 hours after drug treatment, separate groups of mice were injected SC with an LD95 dose of the interferon sensitive virus, Columbia SK. […] Typically, protection from lethal infection with Columbia SK virus is associated with induction of interferon.

[5] = test system: natural killer lymphocytes (NK cells); assay: Stimulation of NK-cell activity in normal mice; conditions: 10 mg/kg intraperitoneal
[6] = test system: B16 melanoma; assay: Distribution of metastatic foci in lungs of mice inoculated subcutaneously with B16 melanoma; type: in vivo, BDF1 mice; conditions: for No. of mice with 0 lung foci/mouse / No. of mice with 1-5 lung foci/mouse / No. of mice with 6-10 lung foci/mouse / No. of mice with 11-15 lung foci/mouse / No. of mice with >15 lung foci/mouse: day 25
Experimental: BDF1 male mice inoculated subcutaneously with 0.25 ml of a 10% tumor
homogenate on day 0. Drugs administered intraperitoneally days 1,5,9 and
13; mice sacrificed on day 25, 10 mice per group. Distribution of […]

`Sc1ncnc2nc[nH]c12` [6-Mercaptopurine, 6-mercaptopurine, reference compound] was tested, and the “% Reduction in splenomegaly” value ([1]; 100 mg/kg) was 113% and the reduction in splenomegaly [1] was no less than 50%.

In the case of `c1cc2cc3ccc(OCCCN4CCCCC4)cc3nc2cc1OCCCN1CCCCC1` [3,6-bis[3-(1-piperidino)propoxy]acridine trihydrochloride], the “% Reduction in splenomegaly” value ([1]; 50 mg/kg) is reported as 74%, the “Serum hemagglutinin titer/saline control titer” value ([2]; 50 mg/kg oral) is reported as 1024/32 and the Survivors/Total [3] is reported as 12/15.

With `CCNCCOc1ccc2cc3ccc(OCCNCC)cc3nc2c1.Cl.Cl.Cl` [3,6-Bis(2-ethylaminoethoxy)acridine trihydrochloride] the “% Reduction in splenomegaly” value ([1]; 100 mg/kg) was 89% and the Survivors/Total [3] was 10/15.

`CCN(CC)CCOc1ccc2c(c1)C(=O)c1cc(OCCN(CC)CC)ccc1-2` [Tilorone, tilorone hydrochloride, reference compound] was tested, and the “Survivors/Total (14 Days)” value ([4]; -24 hr relative to virus challenge, * p <.01) was 18/20, the “Survivors/Total (14 Days)” value ([4]; -48 hr relative to virus challenge, * p <.01) was 15/20 and the “Survivors/Total (14 Days)” value ([4]; -72 hr relative to virus challenge, * p <.01) was 9/20. For the same compound, the “Survivors/Total (14 Days)” value ([4]; -96 hr relative to virus challenge) was 8/20.

With “polyinosinic acid:polycytidylic acid [Poly I:C, reference compound]” the “Serum hemagglutinin titer/saline control titer” value ([2]; 10 mg/kg IP) was 1024/32, the “% Cytotoxicity” value ([5]; Test 1 (CD1 mice), * p <.05) was 24.7% and the “% Cytotoxicity” value ([5]; Test 2 (BDF1 hybrids)) was 36.1%.

For `CCN(CC)CCOc1ccc2cc3ccc(OCCN(CC)CC)c([N+](=O)[O-])c3nc2c1[N+](=O)[O-]` [3,6-bis(2-diethylaminoethoxy)-4,5-dinitroacridine], the “% Reduction in splenomegaly” value ([1]; 100 mg/kg) was 108%.

In the case of `CC(C)NCCOc1ccc2cc3ccc(OCCNC(C)C)cc3nc2c1.Cl.Cl.Cl` [3,6-bis(2-isopropylaminoethoxy)acridine trihydrochloride], the “% Reduction in splenomegaly” value ([1]; 200 mg/kg) is reported as 96%, the “Serum hemagglutinin titer/saline control titer” value ([2]; 100 mg/kg oral) is reported as 512/32 and the Survivors/Total [3] is reported as 15/15.

For `CN(C)CCOc1ccc2cc3ccc(OCCN(C)C)cc3nc2c1.Cl.Cl.Cl` [3,6-bis(2-dimethylaminoethoxy)acridine trihydrochloride], the “No. of mice with 0 lung foci/mouse” value ([6]; 6.5 mg/kg i.p.) was 0, the “No. of mice with 1-5 lung foci/mouse” value ([6]; 6.5 mg/kg i.p.) was 3 and the “No. of mice with 6-10 lung foci/mouse” value ([6]; 6.5 mg/kg i.p.) was 3. For the same compound, the “No. of mice with 11-15 lung foci/mouse” value ([6]; 6.5 mg/kg i.p.) was 1, the “No. of mice with >15 lung foci/mouse” value ([6]; 6.5 mg/kg i.p.) was 1 and the “No. of mice with 0 lung foci/mouse” value ([6]; 12.5 mg/kg i.p.) was 1. The “No. of mice with 1-5 lung foci/mouse” value ([6]; 12.5 mg/kg i.p.) was 5, the “No. of mice with 6-10 lung foci/mouse” value ([6]; 12.5 mg/kg i.p.) was 1 and the “No. of mice with 11-15 lung foci/mouse” value ([6]; 12.5 mg/kg i.p.) was 1. The “No. of mice with >15 lung foci/mouse” value ([6]; 12.5 mg/kg i.p.) was 1, the “No. of mice with 0 lung foci/mouse” value ([6]; 25 mg/kg i.p.) was 2 and the “No. of mice with 1-5 lung foci/mouse” value ([6]; 25 mg/kg i.p.) was 4. For the same compound, the “No. of mice with 6-10 lung foci/mouse” value ([6]; 25 mg/kg i.p.) was 2, the “No. of mice with 11-15 lung foci/mouse” value ([6]; 25 mg/kg i.p.) was 1 and the “No. of mice with >15 lung foci/mouse” value ([6]; 25 mg/kg i.p.) was 0. For the same compound, the “No. of mice with 0 lung foci/mouse” value ([6]; 50 mg/kg i.p.) was 1, the “No. of mice with 1-5 lung foci/mouse” value ([6]; 50 mg/kg i.p.) was 1 and the “No. of mice with 6-10 lung foci/mouse” value ([6]; 50 mg/kg i.p.) was 4. For the same compound, the “No. of mice with 11-15 lung foci/mouse” value ([6]; 50 mg/kg i.p.) was 0, the “No. of mice with >15 lung foci/mouse” value ([6]; 50 mg/kg i.p.) was 0 and the “No. of mice with 0 lung foci/mouse” value ([6]; 100 mg/kg i.p.) was 3. For the same compound, the “No. of mice with 1-5 lung foci/mouse” value ([6]; 100 mg/kg i.p.) was 7, the “No. of mice with 6-10 lung foci/mouse” value ([6]; 100 mg/kg i.p.) was 0 and the “No. of mice with 11-15 lung foci/mouse” value ([6]; 100 mg/kg i.p.) was 0. For the same compound, the “No. of mice with >15 lung foci/mouse” value ([6]; 100 mg/kg i.p.) was 0 and the “Mortality (in place of lung foci count)” value ([6]; 200 mg/kg i.p. days 1,5,9,13) was “All mice dead”.

For `O=c1[nH]cc(F)c(=O)[nH]1` [5-fluorouracil, reference compound], the “No. of mice with 0 lung foci/mouse” value ([6]; 20 mg/kg i.p.) was 1, the “No. of mice with 1-5 lung foci/mouse” value ([6]; 20 mg/kg i.p.) was 2 and the “No. of mice with 6-10 lung foci/mouse” value ([6]; 20 mg/kg i.p.) was 1. For the same compound, the “No. of mice with 11-15 lung foci/mouse” value ([6]; 20 mg/kg i.p.) was 2, the “No. of mice with >15 lung foci/mouse” value ([6]; 20 mg/kg i.p.) was 1 and the “No. of mice with 0 lung foci/mouse” value ([6]; 25 mg/kg i.p.) was 3. For the same compound, the “No. of mice with 1-5 lung foci/mouse” value ([6]; 25 mg/kg i.p.) was 3, the “No. of mice with 6-10 lung foci/mouse” value ([6]; 25 mg/kg i.p.) was 1 and the “No. of mice with 11-15 lung foci/mouse” value ([6]; 25 mg/kg i.p.) was 1. The “No. of mice with >15 lung foci/mouse” value ([6]; 25 mg/kg i.p.) was 1, the “No. of mice with 0 lung foci/mouse” value ([6]; 30 mg/kg i.p.) was 3 and the “No. of mice with 1-5 lung foci/mouse” value ([6]; 30 mg/kg i.p.) was 3. For the same compound, the “No. of mice with 6-10 lung foci/mouse” value ([6]; 30 mg/kg i.p.) was 3, the “No. of mice with 11-15 lung foci/mouse” value ([6]; 30 mg/kg i.p.) was 0 and the “No. of mice with >15 lung foci/mouse” value ([6]; 30 mg/kg i.p.) was 0. The “No. of mice with 0 lung foci/mouse” value ([6]; 40 mg/kg i.p.) was 2, the “No. of mice with 1-5 lung foci/mouse” value ([6]; 40 mg/kg i.p.) was 5 and the “No. of mice with 6-10 lung foci/mouse” value ([6]; 40 mg/kg i.p.) was 4. The “No. of mice with 11-15 lung foci/mouse” value ([6]; 40 mg/kg i.p.) was 0, the “No. of mice with >15 lung foci/mouse” value ([6]; 40 mg/kg i.p.) was 0 and the “No. of mice with 0 lung foci/mouse” value ([6]; 50 mg/kg i.p.) was 2. For the same compound, the “No. of mice with 1-5 lung foci/mouse” value ([6]; 50 mg/kg i.p.) was 4, the “No. of mice with 6-10 lung foci/mouse” value ([6]; 50 mg/kg i.p.) was 3 and the “No. of mice with 11-15 lung foci/mouse” value ([6]; 50 mg/kg i.p.) was 0. For the same compound, the “No. of mice with >15 lung foci/mouse” value ([6]; 50 mg/kg i.p.) was 0, the “% Reduction in splenomegaly” value ([1]; 50 mg/kg) was 115% and the reduction in splenomegaly [1] was no less than 50%.

`CCN(CC)C(C)COc1ccc2cc3ccc(OCC(C)N(CC)CC)cc3nc2c1.Cl.Cl.Cl` (centres unmarked) [3,6-Bis(2-diethylaminopropoxy)acridine . 3HCl] was tested, and the Survivors/Total [3] was 13/15.

`CCN(CC)CCOc1ccc2cc3ccc(OCCN(CC)CC)c(Cl)c3nc2c1Cl` [3,6-bis(2-diethylaminoethoxy)-4,5-dichloroacridine] was tested, and the “% Reduction in splenomegaly” value ([1]; 50 mg/kg) was 86%, the “Serum hemagglutinin titer/saline control titer” value ([2]; 100 mg/kg oral) was 128/16 and the Survivors/Total [3] was 7/15.

In the case of `CN(Cc1cnc2nc(N)nc(N)c2n1)c1ccc(C(=O)N[C@@H](CCC(=O)O)C(=O)O)cc1` [Methotrexate, reference compound], the “% Reduction in splenomegaly” value ([1]; 4 mg/kg) is reported as 59% and the reduction in splenomegaly [1] is reported as no less than 50%.

`Cl.Cl.Cl.c1cc2cc3ccc(OCCN4CCCCC4)cc3nc2cc1OCCN1CCCCC1` [3,6-bis(2-piperidinoethoxy)acridine trihydrochloride] was tested, and the “% Reduction in splenomegaly” value ([1]; 100 mg/kg) was 84%, the “Serum hemagglutinin titer/saline control titer” value ([2]; 100 mg/kg oral) was 256/16 and the Survivors/Total [3] was 12/15.
